Measurements from patent publication US11840495B2, “Compositions and methods related to di-substituted bicyclo[2.2.1] heptanamine-containing compounds” (The Broad Institute, Inc., priority 2020, dated 2023).
Read-outs that look alike come from different tables or passages of the source.

Experiments:
MUC1-fs = assay: Immunofluorescence imaging of MUC1-fs in P cells (Example 2); format: cell-based; settings: for EC50: 48 hr incubation, MUC1-fs; for Emax / ECMax (%): 48 hr; for Emax: DMSO = 0, JQ1 = −100% activity, in %; for ECMax (%): DMSO = 0, JQ1 (250 nM) = −100% activity
Protocol: (§1) P cells were seeded 24 hr prior to compound treatment at a density of 12,000 cells/well in 384 well Cell Carrier Ultra plates (6057308, Perkin Elmer), pre-coated with 0.25 mg/mL Synthemax II SC Substrate (3535, Corning). Compounds were used at 5 doses (35, 3.5, 0.35, 0.035 and 0.0035 μM) for the primary screen and 10 doses (16, 5.6, 1.8, 0.6, 0.21, 0.07, 0.02, 0.008, 0.002 and 0.0008 μM) for the following screens. The compounds, in two replicates, were transferred from compound source plates to the cell plates using the HighRes Pin Tool. DMSO was used as a negative control and JQ1 (250 nM) (a bromodomain inhibitor) was chosen as a positive control, based on earlier studies showing its potent effect on reducing total MUC1 mRNA levels (data not shown). After 48 hr incubation, cells were fixed for 20 min in 4% PFA (Electron Microscopy Sciences) in PBS, washed twice, then permeabilized (10 min) with 0.5% Triton-X100 (X100-100ML, Sigma-Aldrich) in PBS and washed once more. Cells were blocked for 10 min at RT with Blocking solution (100 mM Tris HCL pH8; 150 mM NaCL; 5 g/L Blocking Reagent [11096176001, Roche]), then incubated 90 min at RT with one of the following primary antibodies in Roche Blocking solution: 1:500, monoclonal Fab-A-VSH anti-MUC1-fs, AbD22655.2, Bio-Rad; 1:2000, monoclonal mouse anti-MUC1 (214D4), 05-652-KC, Millipore; 1:1000, monoclonal, Rabbit anti-GM130 (D6B1) XP, 12480, Cell signaling technology. The primary antibody cocktail was incubated at RT for 1.5 hr, followed by four PBS wash cycles. The secondary antibody cocktail contained four components that were all prepared at a 1:1000 dilution in the Roche blocking solution and consisted of Alexa Fluor® 488-conjugated AffiniPure F(ab′)2 Fragment Goat anti-Human IgG, 109-546-097, Jackson Immunoresearch; Alexa Fluor® 647-conjugated Goat anti-Rabbit IgG, A-21246, Thermo Fisher Scientific®; Alexa Fluor® 546 Goat anti-mouse IgG, A-21123, Thermo Fisher Scientific® and Hoechst 33342 stain (62249, Thermo Fisher Scientific®). The secondary antibody cocktail was incubated at RT for 45 min, followed by four PBS wash cycles. Finally, plates were sealed with a Plate Loc plate and stored in Liconic incubator at 10° C. until imaging. Following image analysis, three parameters were selected, i) MUC1-fs and ii) MUC1-wt total cytoplasm intensity (averaged per cell) and iii) cell number as was detected by Hoechst 33342 stained nuclei. The levels of MUC1-fs and MUC1-wt found following DMSO and JQ1 were defined as 0 and −100% activity, respectively. The values obtained for all compounds were normalized accordingly. Cell number was normalized to DMSO control.

MUC1-wt = assay: Immunofluorescence imaging of MUC1-wt in P cells (Example 2); format: cell-based; settings: for EC50: 48 hr incubation, MUC1-wt; for WT EMax / WT ECMax (%): 48 hr; for WT EMax: DMSO = 0, JQ1 = −100% activity, in %; for WT ECMax (%): DMSO = 0, JQ1 (250 nM) = −100% activity
Protocol: as §1

Row | EC50 (MUC1-fs; read-out: EC50) | EC50 (MUC1-wt; read-out: WT EC50) | Compound | Emax (MUC1-fs) | WT EMax (MUC1-wt) | EC50 (MUC1-fs; read-out: EC50(Spot)) | ECMax (%) (MUC1-fs) | EC50 (MUC1-wt; read-out: WT EC50 (Cytoplasm)) | WT ECMax (%) (MUC1-wt)
1 | > 16 µM | > 16 µM | Cl.N[C@@H]1[C@@H]2CC[C@@H](C2)C12CCCC(C(=O)N1CCOCC1)C2 (stereo partly drawn) [Compound 226, ((1S,3R,4R)-3-aminospiro[bicyclo[2.2.1]heptane-2,1′-cyclohexan]-3′-yl)(morpholino)methanone hydrochloride] | 7.8 | 9.0 |  |  |  | 
2 | 1.63 µM | > 16 µM | Cl.N[C@H]1[C@@H]2CC[C@@H](C2)C12CCCCC2 [Compound 231, (1S,3S,4R)-spiro[bicyclo[2.2.1]heptane-2,1′-cyclohexan]-3-amine hydrochloride] | −76.5 | −7.0 |  |  |  | 
3 | 4.83 µM | > 16 µM | C[C@]1(N)[C@@H]2CC[C@@H](C2)C12CCCCC2.Cl [Compound 234, (1S,3S,4R)-3-methylspiro[bicyclo[2.2.1]heptane-2,1′-cyclohexan]-3-amine hydrochloride] | −96 | 6.7 |  |  |  | 
4 | 1.9 µM | > 16 µM | CC(C)[C@@]1(C)[C@H]2CC[C@H](C2)[C@H]1N.Cl [Compound 246-A, (1R,2R,3S,4S)-3-isopropyl-3-methylbicyclo[2.2.1]heptan-2-amine hydrochloride] | −67.8 | 20.7 |  |  |  | 
5 | 6.99 µM | > 16 µM | CC(C)[C@@]1(C)[C@H]2CC[C@H](C2)[C@@H]1N.Cl [Compound 246-B, (1R,2S,3S,4S)-3-isopropyl-3-methylbicyclo[2.2.1]heptan-2-amine hydrochloride] | −69.3 | 6.2 |  |  |  | 

More lines, now with the values behind:

Row | Compound | EC50 (MUC1-fs; read-out: EC50) | EC50 (MUC1-wt; read-out: WT EC50) | Emax (MUC1-fs) | WT EMax (MUC1-wt) | EC50 (MUC1-fs; read-out: EC50(Spot)) | ECMax (%) (MUC1-fs) | EC50 (MUC1-wt; read-out: WT EC50 (Cytoplasm)) | WT ECMax (%) (MUC1-wt)
6 | CC[C@@]1(Cc2ccccc2)[C@@H]2CC[C@@H](C2)[C@@H]1N.Cl [Compound 219-P2, (1S,2S,3R,4R)-3-benzyl-3-ethylbicyclo[2.2.1]heptan-2-amine hydrochloride] | > 16 µM | > 16 µM | −10.3 | 11.3 |  |  |  | 
7 | Cl.N[C@H]1[C@@H]2CC[C@@H](C2)C12CCCC(C(=O)N1CCOCC1)C2 (stereo partly drawn) [Compound 226-1, ((1S,3S,4R)-3-aminospiro[bicyclo[2.2.1]heptane-2,1′-cyclohexan]-3′-yl)(morpholino)methanone hydrochloride] | > 16 µM | > 16 µM | −32.0 | −24.5 |  |  |  | 
8 | Cl.N[C@@H]1[C@@H]2CC[C@@H](C2)C12CCCC(C(=O)N1CCCCC1)C2 (stereo partly drawn) [Compound 227, ((1S,3R,4R)-3-aminospiro[bicyclo[2.2.1]heptane-2,1′-cyclohexan]-3′-yl)(piperidin-1-yl)methanone hydrochloride] | > 16 µM | > 16 µM | −39.9 | 4.6 |  |  |  | 
9 | Cl.N[C@H]1[C@@H]2CC[C@@H](C2)C12CCCC(C(=O)N1CCCCC1)C2 (stereo partly drawn) [Compound 227-1, ((1S,3S,4R)-3-aminospiro[bicyclo[2.2.1]heptane-2,1′-cyclohexan]-3′-yl)(piperidin-1-yl)methanone hydrochloride] | 3.6 µM | > 16 µM | −79.5 | −7.0 |  |  |  | 
10 | Cl.N[C@@H]1[C@@H]2CC[C@@H](C2)C12CC1CCC2CC1 (stereo partly drawn) [Compound 239, (1S,3R,4R)-spiro[bicyclo[2.2.1]heptane-2,2′-bicyclo[2.2.2]octan]-3-amine hydrochloride] | 2.29 µM | 13.5 µM | −83.1 | 62.7 |  |  |  | 
11 | Cl.N[C@@H]1[C@@H]2CC[C@@H](C2)C12CCC[C@H](O)C2 (stereo partly drawn) [Compound 241-A, (1S,3R,3′S,4R)-3-aminospiro[bicyclo[2.2.1]heptane-2,1′-cyclohexan]-3′-ol hydrochloride] | > 16 µM | > 16 µM | −11.4 | −5.7 |  |  |  | 
12 | CCC1(CC)[C@H]2CC[C@H](C2)[C@]1(N)c1cccs1.Cl [Compound 247, (1R,2R,4S)-3,3-diethyl-2-(thiophen-2-yl)bicyclo[2.2.1]heptan-2-amine hydrochloride] | > 16 µM | > 16 µM | −45.8 | 5.7 |  |  |  | 
13 | (1R,3S,4S)-spiro[bicyclo[2.2.1]heptane-3,1′-cyclopentan]-2-amine hydrochloride [Compound 209-P1] |  |  |  |  | 0.04 µM | −70.66% | > 5.6 µM | −210%
14 | (1S,3R,4R)-spiro[bicyclo[2.2.1]heptane-3,1′-cyclohexan]-2-amine [Compound 212-P2] |  |  |  |  | 0.01 µM | −68.36% | 2.6 µM | 183.41%
15 | (1S,3R,4R)-spiro[bicyclo[2.2.1]heptane-3,1′-cyclopentan]-2-amine hydrochloride [Compound 209-P2] |  |  |  |  | 0.01 µM | −64.28% | 2.06 µM | −210%
